From PubChem BioAssay AID1918952 (Molecular Pharmacology Branch, DTP, NCI, 2023)

System: LG0703-F948-PDC complex spheroid viability
Assay: Anticancer human tumor LG0703-F948-PDC patient-derived lung adenocarcinoma cell line growth inhibition
Conditions: for IC50: curve of first compound; for viability, T/C: stronger effect = lower value; active means viability on the fitted dose curve at most 10% of control; inactive means the rest
From the text: Multicellular complex tumor spheroid response to LSD1 Inhibitor Iadademstat in combination with a variety of drugs and investigational agents in selected tumor cell lines
The current study was undertaken to assess response to LSD1 inhibitors in combination with standard-of-care drugs and investigational agents in solid tumor complex spheroid models as well as in the K-562 leukemia. Complex spheroids include a stromal component modeled by human endothelial cells (HUVEC) and fibroblasts modeled by human mesenchymal stem cells (MSCs). The concentration ranges selected for each drug and investigational agent were based upon clinically achievable concentrations if the clinical Cmax of the agent was known.
Compounds. The drugs and investigational agents used in this study are listed on Table 1. All of the agents used, including staurosporine (NSC755774) and gemcitabine (NSC613327), were obtained from the Developmental Therapeutics Program, NCI. FDA-approved anticancer drugs are available from the NCI at http://dtp.nci.nih.gov/branches/dscb/oncology_drugset_explanation.html. Drugs and investigational agents were >95% pure by proton nuclear magnetic resonance (NMR) and liquid chromatography/mass spectrometry (LC/MS). Stock solutions were prepared at 400x in DMSO, stored at -70 degrees C, and diluted in fresh medium prior to their use. The final concentration of DMSO in cell culture wells never exceeded 0.25% (v/v). The FDA-approved anticancer drug set is available from the Developmental Therapeutics Program at https://dtp.cancer.gov/organization/dscb/obtaining/available_plates.htm. All drugs and investigational agents were tested over a range starting from a high concentration at or near the clinical Cmax and decreasing in half-log increments. If the clinical Cmax for an agent had not been determined, the highest concentration tested was 10 microM.
Cell Lines. The patient-derived cancer cell (PDC) lines: 292921-168-R-J2-PDC, K24384-001-R-PDC, and 521955-158-R2-J5-PDC pancreatic carcinomas, 556581-035-R-J1 ovarian carcinoma, 324938-238-R-J1-PDC, 855422-203-R-J1-PDC and 883617-216-R-J1-PDC urothelial bladder carcinomas, 743489-274-T-PDC renal cell carcinoma, 138582-R-J1 Merkel cell tumor, K60290-347-R-J1 and K57222-313-R-J1-PDC glioblastomas, 653999-131-R-J2-PDC, LG0703-F948-PDC, and 349418-098-R-PDC non-small cell lung carcinomas, 885512-296-R-J2-PDC, 171881-019-R-J1-PDC breast carcinomas and 186277-243-T-J2-PDC and 233499-124-R-J2-PDC colon carcinomas were obtained from the NCI Patient-Derived Models Repository (PDMR, https://pdmr.cancer.gov). The established cell lines NCI/ADR-RES (RRID:CVCL_14520 and OVCAR-5 (RRID:CVCL_1628) ovarian carcinomas, 786-O (RRID:CVCL_1051) and A498 (RRID:CVCL_A498) renal cell carcinoma, NCI-H211 (ATCC, cat. CRL-5824; RRID:CVCL_1529), NCI-H196 (ATCC, cat. CRL-5823, RRID:CVCL_1509), SW 1271 (ATCC, cat. CRL-2177, RRID:CVCL_1716) and NCI-H1876 (ATCC, cat. CRL-5902, RRID:CVCL_1503) small cell lung carcinomas, MDA-MB-231 (RRID:CVCL_0062) and MDA-MB-468 (RRID:CVCL_0419)breast carcinomas (10-12). Pooled donor human umbilical vein endothelial cells (HUVEC, Lonza, cat. CC-2519) and human mesenchymal stem cells (hMSC, Lonza, cat. PT-2501) were purchased from Lonza (Walkersville, MD).
Cell Culture. All cells were maintained in an incubator at 37 degrees C and 5% CO2 with 95% humidity. The PDC lines were cultured according to standard operating procedures established by the NCI PDMR (https://pdmr.cancer.gov). Briefly all PDCs were thawed and cultured in Matrigel-coated flasks prepared with a working solution of 1X Ham's F-12 nutrient mix, without supplementation (Invitrogen, Waltham, MA, cat. 11765054), 100 U/mL penicillin-streptomycin (Invitrogen, cat. 15140122), and 2.5% Matrigel (Corning Inc., Corning, NY, cat. 354248) for the first three passages. […]
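Further: spheroids exposed to agents for seven days before readout.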
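Wherever viability, T/C is given: 100% = DMSO vehicle control wells as normalization base.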

CCN(c1cc(-c2ccc(CN3CCOCC3)cc2)cc(C(=O)NCc2c(C)cc(C)[nH]c2=O)c1C)C1CCOCC1 + NC1CCC(NC2CC2c2ccccc2)CC1
> 3000 nM: IC50 (second compound 0.1 µM) | IC50 (second compound 0.316 µM) | IC50 (second compound 1 µM) | IC50 (second compound 3.16 µM) | IC50 (second compound 10 µM)
inactive: viability, T/C (second compound 0.1 µM, first compound 0.00949 µM) 105% | viability, T/C (second compound 0.1 µM, first compound 0.03 µM) 106% | viability, T/C (second compound 0.1 µM, first compound 0.0949 µM) 96.2% | viability, T/C (second compound 0.1 µM, first compound 0.3 µM) 108% | viability, T/C (second compound 0.1 µM, first compound 0.949 µM) 119% | viability, T/C (second compound 0.1 µM, first compound 3 µM) 128% | viability, T/C (second compound 0.316 µM, first compound 0.00949 µM) 107% | viability, T/C (second compound 0.316 µM, first compound 0.03 µM) 130% | viability, T/C (second compound 0.316 µM, first compound 0.0949 µM) 106% | viability, T/C (second compound 0.316 µM, first compound 0.3 µM) 112% | viability, T/C (second compound 0.316 µM, first compound 0.949 µM) 111% | viability, T/C (second compound 0.316 µM, first compound 3 µM) 112% | viability, T/C (second compound 1 µM, first compound 0.00949 µM) 128% | viability, T/C (second compound 1 µM, first compound 0.03 µM) 116% | viability, T/C (second compound 1 µM, first compound 0.0949 µM) 113% | viability, T/C (second compound 1 µM, first compound 0.3 µM) 133% | viability, T/C (second compound 1 µM, first compound 0.949 µM) 128% | viability, T/C (second compound 1 µM, first compound 3 µM) 127% | viability, T/C (second compound 3.16 µM, first compound 0.00949 µM) 124% | viability, T/C (second compound 3.16 µM, first compound 0.03 µM) 131% | viability, T/C (second compound 3.16 µM, first compound 0.0949 µM) 144% | viability, T/C (second compound 3.16 µM, first compound 0.3 µM) 138% | viability, T/C (second compound 3.16 µM, first compound 0.949 µM) 121% | viability, T/C (second compound 3.16 µM, first compound 3 µM) 141% | viability, T/C (second compound 10 µM, first compound 0.00949 µM) 120% | viability, T/C (second compound 10 µM, first compound 0.03 µM) 131% | viability, T/C (second compound 10 µM, first compound 0.0949 µM) 134% | viability, T/C (second compound 10 µM, first compound 0.3 µM) 118% | viability, T/C (second compound 10 µM, first compound 0.949 µM) 118% | viability, T/C (second compound 10 µM, first compound 3 µM) 105%

Nc1ncn(C2CC(O)C(CO)O2)c(=O)n1 (stereo not given) + NC1CCC(NC2CC2c2ccccc2)CC1
inactive: viability, T/C (second compound 0.1 µM, first compound 0.00316 µM) 101% | viability, T/C (second compound 0.1 µM, first compound 0.01 µM) 102% | viability, T/C (second compound 0.1 µM, first compound 0.0316 µM) 98% | viability, T/C (second compound 0.1 µM, first compound 0.1 µM) 96.3% | viability, T/C (second compound 0.1 µM, first compound 0.316 µM) 95.4% | viability, T/C (second compound 0.1 µM, first compound 1 µM) 81.9% | viability, T/C (second compound 0.316 µM, first compound 0.00316 µM) 114% | viability, T/C (second compound 0.316 µM, first compound 0.01 µM) 118% | viability, T/C (second compound 0.316 µM, first compound 0.0316 µM) 110% | viability, T/C (second compound 0.316 µM, first compound 0.1 µM) 98.7% | viability, T/C (second compound 0.316 µM, first compound 0.316 µM) 102% | viability, T/C (second compound 0.316 µM, first compound 1 µM) 98.5% | viability, T/C (second compound 1 µM, first compound 0.00316 µM) 107% | viability, T/C (second compound 1 µM, first compound 0.01 µM) 126% | viability, T/C (second compound 1 µM, first compound 0.0316 µM) 130% | viability, T/C (second compound 1 µM, first compound 0.1 µM) 106% | viability, T/C (second compound 1 µM, first compound 0.316 µM) 97% | viability, T/C (second compound 1 µM, first compound 1 µM) 112% | viability, T/C (second compound 3.16 µM, first compound 0.00316 µM) 122% | viability, T/C (second compound 3.16 µM, first compound 0.01 µM) 121% | viability, T/C (second compound 3.16 µM, first compound 0.0316 µM) 117% | viability, T/C (second compound 3.16 µM, first compound 0.1 µM) 111% | viability, T/C (second compound 3.16 µM, first compound 0.316 µM) 131% | viability, T/C (second compound 3.16 µM, first compound 1 µM) 101% | viability, T/C (second compound 10 µM, first compound 0.00316 µM) 122% | viability, T/C (second compound 10 µM, first compound 0.01 µM) 141% | viability, T/C (second compound 10 µM, first compound 0.0316 µM) 111% | viability, T/C (second compound 10 µM, first compound 0.1 µM) 114% | viability, T/C (second compound 10 µM, first compound 0.316 µM) 113% | viability, T/C (second compound 10 µM, first compound 1 µM) 122%
> 1000 nM: IC50 (second compound 0.1 µM) | IC50 (second compound 0.316 µM) | IC50 (second compound 1 µM) | IC50 (second compound 3.16 µM) | IC50 (second compound 10 µM)
